Source: patent publication US20190343780A1, “LOW DOSE DRUG COMBINATIONS FOR USE IN PREVENTING AND TREATING NEURONAL DAMAGE” (priority 2016, published 2019)
Like-named read-outs stand apart in the source and are kept apart here.

How the values were obtained:
[1] = test system: rats with hemic hypoxia (sodium nitrite); assay: Hemic hypoxia in rats (sodium nitrite 80 mg/kg I.M.), treatment I.M.; format: in vivo, rat; conditions: for ED50: Rattus norvegicus, im; for ED50 / Dose with significant anti-hypoxic effect: combination: memantine dose; for Dose with significant anti-hypoxic effect: text summary of Table 1 (hemic and asphyctic hypoxia)
Experimental: (§1) Rats were intra-muscularly (I.M.) administered with 80 mg/kg sodium nitrite to achieve hemic hypoxia (Serdiuk et al., Eksp. Klin. Farmakol., 2000, Vol. 63(6), pages 3-8). Mice were caged in a 100 cm^3 sealed glass chamber to achieve asphyctic hypoxia, which simulates cerebral ischemia (Serdiuk et al., Eksp. Klin. Farmakol., 2000, Vol. 63(6), pages 3-8; Khalili et al., Eur. Rev. Med. Pharmacol. Sci., 2015, Vol. 19(17), pages 3282-3285).
(§2) Rats and mice were treated as in Example 1.

[2] = test system: mice with asphyctic hypoxia; assay: Asphyctic hypoxia in mice (sealed 100 cm^3 glass chamber), treatment I.P.; format: in vivo; conditions: for ED50: Mus musculus, ip, Dose increasing the life of mice by 50%, combination: memantine dose, read-out: Asphyctic hypoxia (ED50), mg/kg, I.P. admin.
Experimental: as §1, §2

[3] = test system: mice, toxic stimulation of NMDA receptors of brain
Experimental: Mice were I.P. administered with 250 mg/kg N-Methyl-D-aspartic acid (NMDA), a neurotoxin causing clonic-tonic seizure and death in 100% of animals by toxic stimulating of NMDA receptors of brain (Leander et al., Brain Res., 1988, Vol. 448 (1), pages 115-120). Rats were I.M. administered with 12 mg/kg Kainic acid to achieve chronic kainate degeneration of the brain by stimulation of AMPA/kainate receptors (Serdyuk et al., Bull. Exp. Biol. Med., 2014, Vol. 157(1), pages 15-17). Chronic kainate degeneration leads to chronic kainate lethality, neurologic disturbances and large weight loss (Serdyuk et al., Bull. Exp. Biol. Med., 2014, Vol. 157(1), pages 15-17).
Animals were then treated with deionized water (control), memantine, epinephrine or combinations of memantine and epinephrine, which were I.P. or I.M administered, as indicated.
Rats were treated as in Example 3.

[4] = test system: rats with chronic kainate degeneration of the brain (AMPA/kainate receptors); assay: Chronic kainate degeneration in rats (kainic acid 12 mg/kg I.M.), treatment I.M.; format: in vivo, rat; conditions: for Chronic Kainate lethality in rats (%) / Rats with heavy neurologic disturbances (%) / Rats with large weight loss (%): I.M.; for Chronic Kainate lethality in rats (%): 2 weeks after kainate; for Rats with heavy neurologic disturbances (%): score 3 to 5 points; for Dose with significant neuroprotective effect: text summary of Table 3 (NMDA lethality and kainate degeneration)
Experimental: Table 3 summarizes the neuroprotective effect of such treatments.
Rats were treated as in Example 3. Table 4 summarizes the neuroprotective effect of such treatments.

[5] = test system: rats with hemic hypoxia (sodium nitrite); assay: Hemic hypoxia in rats (sodium nitrite 80 mg/kg), oral treatment; format: in vivo, rat; conditions: 40 minutes before sodium nitrite
Experimental: Table 5 summarizes the anti-hypoxic and neuroprotective effects of such treatments.
Rats were treated as in Example 5. Table 6 summarizes the neuroprotective effect of such treatments.

[6] = test system: rats with chronic kainate degeneration of the brain (AMPA/kainate receptors); assay: Chronic kainate degeneration in rats (kainic acid 12 mg/kg), oral treatment; format: in vivo, rat; conditions: for Chronic kainate lethality in rats, % per group: 2 weeks after kainate; for Rats with heavy neurological diseases (%): score 3 to 5 points; for ED50: Rattus norvegicus
Experimental: Rats were either orally administered with 80 mg/kg sodium nitrite to achieve hemic hypoxia, as explained In Example 1, or with 12 mg/kg Kainic acid to achieve chronic kainate degeneration of the brain by stimulation of AMPA/kainate receptors.

[7] = test system: rats with focal cerebral ischemia; conditions: cited from earlier work
[8] = cited from earlier work
[9] = intravenous injection during the first 12 hours after stroke, cited from earlier work
[10] = Dose increasing the life of rats by 50%, read-out: Hemic hypoxia (ED50), mg/kg, I.M. admin.
[11] = text summary of Table 2, span over hemic and asphyctic hypoxia, read-out: ED50, anti-hypoxic effect
[12] = Dose 5 mg/kg (combination: memantine dose)
[13] = Dose 10 mg/kg (combination: memantine dose)

## CNC[C@H](O)c1ccc(O)c(O)c1 [Epinephrine, epinephrine]
[1]; Dose 0.01 mg/kg
  Hemic hypoxia, rat life duration (min), I.M. admin.: 63 ± 7 ^ min
[1]; Dose 0.02 mg/kg
  Hemic hypoxia, rat life duration (min), I.M. admin.: 69 ± 8 ^ min
[1]; Dose 0.1 mg/kg
  Hemic hypoxia, rat life duration (min), I.M. admin.: 113 ± 16 ^2 min
[1]; Dose 0.2 mg/kg
  Hemic hypoxia, rat life duration (min), I.M. admin.: 122 ± 19 ^2 min
[1]; [10]
  ED50: 0.06 ± 0.01 mg/kg
[1]; [11]
  ED50: 0.06 to 0.12 mg/kg
[1]
  Dose with significant anti-hypoxic effect: ≥ 0.1 mg/kg
[2]; Dose 0.01 mg/kg
  Asphyctic hypoxia, mice life duration (sec), I.P. admin.: 711 ± 79 s
[2]; Dose 0.02 mg/kg
  Asphyctic hypoxia, mice life duration (sec), I.P. admin.: 750 ± 90 s
[2]; Dose 0.1 mg/kg
  Asphyctic hypoxia, mice life duration (sec), I.P. admin.: 990 ± 123 s
[2]; Dose 0.2 mg/kg
  Asphyctic hypoxia, mice life duration (sec), I.P. admin.: 1250 ± 155 ^1 sec
[2]
  ED50: 0.12 ± 0.02 mg/kg
[3]; Dose 0.01 mg/kg
  Acute NMDA lethality in mice (%), I.P. admin.: 100 ^ %
[3]; Dose 0.02 mg/kg
  Acute NMDA lethality in mice (%), I.P. admin.: 100 ^ %
[3]; Dose 0.1 mg/kg
  Acute NMDA lethality in mice (%), I.P. admin.: 30 ^1%
[3]; Dose 0.2 mg/kg
  Acute NMDA lethality in mice (%), I.P. admin.: 10 ^2%
[4]; Dose 0.01 mg/kg
  Chronic Kainate lethality in rats (%): 90%
[4]; Dose 0.01 mg/kg, 7-14 days after kainate
  Rats with heavy neurologic disturbances (%): 100 ^ %
[4]; Dose 0.01 mg/kg, underweight more than 30%, 7-14 days after kainate
  Rats with large weight loss (%): 100 ^ %
[4]; Dose 0.02 mg/kg
  Chronic Kainate lethality in rats (%): 80%
[4]; Dose 0.02 mg/kg, 7-14 days after kainate
  Rats with heavy neurologic disturbances (%): 90 ^ %
[4]; Dose 0.02 mg/kg, underweight more than 30%, 7-14 days after kainate
  Rats with large weight loss (%): 80 ^ %
[4]; Dose 0.1 mg/kg
  Chronic Kainate lethality in rats (%): 20 ^1%
[4]; Dose 0.1 mg/kg, 7-14 days after kainate
  Rats with heavy neurologic disturbances (%): 30 ^1%
[4]; Dose 0.1 mg/kg, underweight more than 30%, 7-14 days after kainate
  Rats with large weight loss (%): 20 ^2%
[4]; Dose 0.2 mg/kg
  Chronic Kainate lethality in rats (%): 0 ^2%
[4]; Dose 0.2 mg/kg, 7-14 days after kainate
  Rats with heavy neurologic disturbances (%): 10 ^2%
[4]; Dose 0.2 mg/kg, underweight more than 30%, 7-14 days after kainate
  Rats with large weight loss (%): 0 ^2%
[4]; combination: memantine dose
  Dose with significant neuroprotective effect: ≥ 0.1 mg/kg

## CC12CC3CC(C)(C1)CC(N)(C3)C2 [Memantine, memantine]
[1]; [12]
  Hemic hypoxia, rat life duration (min), I.M. admin.: 63 ± 5 ^ min
[1]; [13]
  Hemic hypoxia, rat life duration (min), I.M. admin.: 77 ± 8 ^ min
[1]; Dose 20 mg/kg
  Hemic hypoxia, rat life duration (min), I.M. admin.: 86 ± 9 ^1 min
[1]; [10]
  ED50: 18.2 ± 2.3 mg/kg
[1]; [11]
  ED50: 18 to 20 mg/kg
[1]
  Dose with significant anti-hypoxic effect: 20 mg/kg
[2]; [12]
  Asphyctic hypoxia, mice life duration (sec), I.P. admin.: 850 ± 80 s
[2]; [13]
  Asphyctic hypoxia, mice life duration (sec), I.P. admin.: 936 ± 93 s
[2]; Dose 20 mg/kg
  Asphyctic hypoxia, mice life duration (sec), I.P. admin.: 1070 ± 114 ^1 sec
[2]
  ED50: 19.9 ± 2.8 mg/kg
[3]; [12]
  Acute NMDA lethality in mice (%), I.P. admin.: 100 ^ %
[3]; [13]
  Acute NMDA lethality in mice (%), I.P. admin.: 60 ^ %
[3]; Dose 20 mg/kg
  Acute NMDA lethality in mice (%), I.P. admin.: 16 ^1%
[4]; [12]
  Chronic Kainate lethality in rats (%): 90%
[4]; Dose 5 mg/kg (combination: memantine dose), 7-14 days after kainate
  Rats with heavy neurologic disturbances (%): 90 ^ %
[4]; Dose 5 mg/kg (combination: memantine dose), underweight more than 30%, 7-14 days after kainate
  Rats with large weight loss (%): 90 ^ %
[4]; [13]
  Chronic Kainate lethality in rats (%): 70%
[4]; Dose 10 mg/kg (combination: memantine dose), 7-14 days after kainate
  Rats with heavy neurologic disturbances (%): 80 ^ %
[4]; Dose 10 mg/kg (combination: memantine dose), underweight more than 30%, 7-14 days after kainate
  Rats with large weight loss (%): 70 ^ %
[4]; Dose 20 mg/kg
  Chronic Kainate lethality in rats (%): 40 ^1%
[4]; Dose 20 mg/kg, 7-14 days after kainate
  Rats with heavy neurologic disturbances (%): 50 ^1%
[4]; Dose 20 mg/kg, underweight more than 30%, 7-14 days after kainate
  Rats with large weight loss (%): 40 ^1%
[4]; Rattus norvegicus, im, read-out: Dose reducing the number of rats with a large deficit of weight by 50% (ED50), mg/kg, I.M. admin., underweight more than 30%, 7-14 days after kainate, combination: memantine dose
  ED50: 17.6 ± 2.4 mg/kg
[4]; combination: memantine dose
  Dose with significant neuroprotective effect: 20 mg/kg
[5]; [12]
  Hemic hypoxia, life of rats (min), Oral admin.: 62 ± 7 min
[5]; [13]
  Hemic hypoxia, life of rats (min), Oral admin.: 65 ± 9 min
[5]; Dose 20 mg/kg
  Hemic hypoxia, life of rats (min), Oral admin.: 73 ± 11 min
[6]; Dose 5 mg/kg (combination: memantine dose), oral
  Chronic kainate lethality in rats, % per group: 90%
[6]; Dose 5 mg/kg (combination: memantine dose), oral, 7-14 days after kainate
  Rats with heavy neurological diseases (%): 90%
[6]; Dose 5 mg/kg (combination: memantine dose), oral, underweight more than 30%, 7-14 days after kainate
  Rats with large weight loss (%): 90%
[6]; Dose 10 mg/kg (combination: memantine dose), oral
  Chronic kainate lethality in rats, % per group: 80%
[6]; Dose 10 mg/kg (combination: memantine dose), oral, 7-14 days after kainate
  Rats with heavy neurological diseases (%): 80%
[6]; Dose 10 mg/kg (combination: memantine dose), oral, underweight more than 30%, 7-14 days after kainate
  Rats with large weight loss (%): 70%
[6]; Dose 20 mg/kg, oral
  Chronic kainate lethality in rats, % per group: 60% ^3
[6]; Dose 20 mg/kg, oral, 7-14 days after kainate
  Rats with heavy neurological diseases (%): 70%
[6]; Dose 20 mg/kg, oral, underweight more than 30%, 7-14 days after kainate
  Rats with large weight loss (%): 60% ^3
[6]; read-out: Dose decreasing the number of rats with large weight loss by 50% (ED50), mg/kg, Oral admin., underweight more than 30%, 7-14 days after kainate, combination: memantine dose
  ED50: 18.8 ± 2.4 mg/kg
[6]; text summary of Table 6, span over hemic hypoxia and kainate endpoints, oral, combination: memantine dose, read-out: ED50, anti-hypoxic and neuroprotective effects
  ED50: 18 to 20 mg/kg
[6]; text summary of Table 5, oral, combination: memantine dose
  Dose with significant neuroprotective effects: 20 mg/kg
[7]; prophylactic administration, 20 mg/kg
  Effect on brain injury and neurological disorders: prevented injury of the brain and reduced neurological disorders
[8]; 20 mg for 6 months, subacute and recovery phase of stroke
  Neurological and cognitive function of stroke patients: significantly improved neurological and cognitive function
[8]; prolonged use, high dose
  Side effects of prolonged use at a high dose: development of agitation, insomnia, irritability, and psychosis

## CNC[C@H](O)c1cccc(O)c1 [Phenylephrine, phenylephrine]
[5]; Dose 0.02 mg/kg
  Hemic hypoxia, life of rats (min), Oral admin.: 60 ± 7 min
[5]; Dose 0.05 mg/kg
  Hemic hypoxia, life of rats (min), Oral admin.: 62 ± 9 min
[5]; Dose 0.1 mg/kg
  Hemic hypoxia, life of rats (min), Oral admin.: 67 ± 10 min
[5]; Dose 0.5 mg/kg
  Hemic hypoxia, life of rats (min), Oral admin.: 77 ± 12 min
[5]; Dose 1.0 mg/kg (combination: memantine dose)
  Hemic hypoxia, life of rats (min), Oral admin.: 88 ± 14 ^1 min
[9]
  Cerebral blood flow: significant improvement in cerebral blood flow
[9]; from 100-110 mm
  Blood pressure after induced hypertension: 160-170 mm
[7]; intravenous administration before ligation of the middle cerebral artery
  Effect on infarction and neurological damage: prevented infarction development and reduced neurological damage
